# Source: publication PMC10254170, “Diastereoselective Synthesis of the Borylated D-Galactose Monosaccharide 3-Boronic-3-Deoxy-D-Galactose and Biological Evaluation in Glycosidase Inhibition and in Cancer for Boron Neutron Capture Therapy (BNCT)” (Molecules, 2023)
# Read-outs that look alike come from different tables or passages of the source.
# How the values were obtained:
# U87 (glioblastoma) = experiment: Cancer screening (MTT growth inhibition), U87; type: cell-based; settings: 72 h
# Procedure: (§1) All test agents were prepared as stock solutions (20 mM) in dimethyl sulfoxide (DMSO) and stored at −20 °C. Cell lines used in the study included: HT29 (colorectal carcinoma), U87 and SJ-G2 (glioblastoma), MCF-7 (breast carcinoma), A2780 (ovarian carcinoma), H460 (lung carcinoma), A431 (skin carcinoma), Du145 (prostate carcinoma), BE2-C (neuroblastoma), MiaPaCa-2 (pancreatic carcinoma), SMA560 (spontaneous murine astrocytoma), and ADDP (Cis Res Ovarian), together with one non-tumor-derived normal breast cell line (MCF10A). All cell lines were incubated in a humidified atmosphere with 5 % CO2 at 37 °C. The cancer cell lines were maintained in Dulbecco’s modified Eagle’s medium (DMEM; Sigma, Australia) supplemented with fetal bovine serum (10%), sodium pyruvate (10 mM), penicillin (100 IUmL^−1), streptomycin (100 µg mL^−1), and L-glutamine (2 mM).
# (§2) Growth inhibition was determined by plating cells in duplicate in medium (100 µL) at a density of 2500–4000 cells per well in 96-well plates. On day 0 (24 h after plating), when the cells are in logarithmic growth, medium (100 µL) with or without the test agent was added to each well. After 72 h of drug exposure, growth inhibitory effects were evaluated using the (3-(4,5-dimethyltiazol-2-yl)-2,5-diphenyltetrazolium bromide) (MTT) assay and absorbance read at 540 nm. The percentage growth inhibition was calculated at a fixed concentration of 25 µM, based on the difference between the optical density values on day 0 and those at the end of drug exposure. Each data point is the mean ± the standard error of the mean (SEM) calculated from three replicates, which were performed on separate occasions and in separate cell line passages.
# [1] = biological target: T1, coffee beans α-galactosidase (Coffea arabica, UniProt Q42656); experiment: Glycosidase inhibition, coffee beans α-galactosidase; type: biochemical
# T1 construct: purchased Sigma-Aldrich Co
# Description: (§3) Glycosidase modulation studies need to explore selectivity as well as potency. Our drugs and controls are therefore screened against a panel of glycosidases in methanol (Table 1) to identify the glycosidase-related disease area(s), selectivity profile, and potency of biological action for each drug. The presence of organic boron covalently bonded to the drug structure also grants a reduced toxicity profile. Following the glycosidase inhibition range recommendations, an IC50 value >250 μm denotes weak inhibition, 100–249 μm denotes moderate inhibition, 10–99 μm good inhibition, 0.1–9 μm potent inhibition, and <0.1 μm very potent inhibition. […] Our boronated D-galactose 7 represents a novel lead in glycosidase inhibition.
# (§4) The glycosidases screened are the following: rice α-glucosidase, yeast α-glucosidase, Bacillus α-glucosidase, rat intestinal maltase α-glucosidase, almond β-glucosidase, bovine liver β-glucosidase, coffee beans α-galactosidase, bovine liver β-galactosidase, Jack bean α-mannosidase, snail β-mannosidase, Penicillium decumbens α-L-rhamnosidase, bovine kidney α-L-fucosidase, Eschierichia coli β-glucuronidase, bovine liver β-glucuronidase, porcine kidney trehalase, Aspergillus niger amyloglucosidase, and bovine kidney N-acetyl-β-glucosaminidase. The disease areas for each glycosidase are summarized in [1].
# (§5) The enzymes α-glucosidase (from yeast), β-glucosidases (from almond and bovine liver), α-galactosidase (from coffee beans), β-galactosidase (from bovine liver), α-mannosidase (from Jack bean), β-mannosidase (from snail), α-L-rhamnosidase (from Penicillium decumbens), α-L-fucosidase (from bovine kidney), trehalase (from porcine kidney), β-glucuronidases (from E. coli and bovine liver), amyloglucosidase (from A. niger), para-nitrophenyl glycosides, and various disaccharides were purchased from Sigma-Aldrich Co.
# (§6) Brush border membranes were prepared from the rat small intestine according to the method of Kessler et al. and were assayed at pH 6.8 for rat intestinal maltase using maltose. For rat intestinal maltase, porcine kidney trehalase, and A. niger amyloglucosidase activities, the reaction mixture contained 25 mM maltose and the appropriate amount of enzyme, and the incubations were performed for 10–30 min at 37 °C. The reaction was stopped by heating at 100 °C for 3 min. After centrifugation (600 g; 10 min), the resulting reaction mixture was added to the Glucose CII-test Wako (Wako Pure Chemical Ind., Osaka, Japan). The absorbance at 505 nm was measured to determine the amount of the released D-glucose. Other glycosidase activities were determined using an appropriate para-nitrophenyl glycoside as substrate at the optimum pH of each enzyme. The reaction mixture contained 2 mM of the substrate and the appropriate amount of enzyme. The reaction was stopped by the addition of 400 mM Na2CO3. The released para-nitrophenol was measured spectrometrically at 400 nm. All reactions run in methanol.
# H460 (lung carcinoma) = experiment: Cancer screening (MTT growth inhibition), H460; type: cell-based; settings: 72 h
# Procedure: as §1, §2
# [2] = tested on: MCF10A (non-tumor-derived normal breast cell line); experiment: Cancer screening (MTT growth inhibition), MCF10A; type: cell-based; settings: 72 h
# Procedure: as §1
# The non-cancer MCF10A cell line was maintained in DMEM:F12 (1:1) cell culture media, 5% heat inactivated horse serum, and supplemented with penicillin (50 IUmL^−1), streptomycin (50 µg mL^−1), HEPES (20 mM), L-glutamine (2 mM), epidermal growth factor (20 ng mL^−1), hydrocortisone (500 ng mL^−1), cholera toxin (100 ng mL^−1), and insulin ([…]).
# as §2
# SJ-G2 (glioblastoma) = experiment: Cancer screening (MTT growth inhibition), SJ-G2; type: cell-based; settings: 72 h
# Procedure: as §1, §2
# [3] = tested on: Du145 (prostate carcinoma); experiment: Cancer screening (MTT growth inhibition), Du145; type: cell-based; settings: 72 h
# Procedure: as §1, §2
# E. coli β-glucuronidase = biological target: T2, E. coli β-glucuronidase (Escherichia coli, UniProt P05804); experiment: Glycosidase inhibition, E. coli β-glucuronidase; type: biochemical
# T2 construct: purchased Sigma-Aldrich Co
# Description: as §3, §4, §5, §6
# [4] = tested on: rat intestinal maltase α-glucosidase; experiment: Glycosidase inhibition, rat intestinal maltase; type: biochemical; settings: for inhibition %: in methanol
# Description: as §3, §4, §6
# BE2-C (neuroblastoma) = experiment: Cancer screening (MTT growth inhibition), BE2-C; type: cell-based; settings: 72 h
# Procedure: as §1, §2
# [5] = biological target: T3, Aspergillus niger amyloglucosidase (Aspergillus niger, UniProt P69328); experiment: Glycosidase inhibition, A. niger amyloglucosidase; type: biochemical
# T3 construct: purchased Sigma-Aldrich Co
# Description: as §3, §4, §5, §6
# [6] = tested on: MiaPaCa-2 (pancreatic carcinoma); experiment: Cancer screening (MTT growth inhibition), MIA-Pa-Ca2; type: cell-based; settings: 72 h
# Procedure: as §1, §2
# snail β-mannosidase = experiment: Glycosidase inhibition, snail β-mannosidase; type: biochemical; settings: for inhibition %: in methanol
# Description: as §3, §4, §5, §6
# MCF-7 (breast carcinoma) = experiment: Cancer screening (MTT growth inhibition), MCF-7; type: cell-based; settings: 72 h
# Procedure: as §1, §2
# [7] = in methanol, read-out: inhibition %
# [8] = 25 µM of drug, n = 3, mean ± SEM
# T2 sequence (P05804 whole entry): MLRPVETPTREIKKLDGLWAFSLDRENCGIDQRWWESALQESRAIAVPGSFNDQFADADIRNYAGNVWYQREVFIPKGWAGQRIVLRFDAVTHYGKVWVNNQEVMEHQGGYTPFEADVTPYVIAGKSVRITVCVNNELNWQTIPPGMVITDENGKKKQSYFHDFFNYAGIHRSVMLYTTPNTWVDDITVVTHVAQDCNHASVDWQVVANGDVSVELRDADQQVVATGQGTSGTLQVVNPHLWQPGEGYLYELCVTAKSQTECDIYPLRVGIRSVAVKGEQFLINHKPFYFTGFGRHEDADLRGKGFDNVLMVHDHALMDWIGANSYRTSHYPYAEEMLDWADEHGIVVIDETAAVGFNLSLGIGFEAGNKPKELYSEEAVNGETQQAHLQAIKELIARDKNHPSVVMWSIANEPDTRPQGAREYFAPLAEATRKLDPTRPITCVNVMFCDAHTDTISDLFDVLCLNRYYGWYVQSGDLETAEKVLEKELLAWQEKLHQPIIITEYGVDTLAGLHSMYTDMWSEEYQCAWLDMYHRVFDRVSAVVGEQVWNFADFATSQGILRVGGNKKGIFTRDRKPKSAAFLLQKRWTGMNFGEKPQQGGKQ
# T3 sequence (P69328 25-640): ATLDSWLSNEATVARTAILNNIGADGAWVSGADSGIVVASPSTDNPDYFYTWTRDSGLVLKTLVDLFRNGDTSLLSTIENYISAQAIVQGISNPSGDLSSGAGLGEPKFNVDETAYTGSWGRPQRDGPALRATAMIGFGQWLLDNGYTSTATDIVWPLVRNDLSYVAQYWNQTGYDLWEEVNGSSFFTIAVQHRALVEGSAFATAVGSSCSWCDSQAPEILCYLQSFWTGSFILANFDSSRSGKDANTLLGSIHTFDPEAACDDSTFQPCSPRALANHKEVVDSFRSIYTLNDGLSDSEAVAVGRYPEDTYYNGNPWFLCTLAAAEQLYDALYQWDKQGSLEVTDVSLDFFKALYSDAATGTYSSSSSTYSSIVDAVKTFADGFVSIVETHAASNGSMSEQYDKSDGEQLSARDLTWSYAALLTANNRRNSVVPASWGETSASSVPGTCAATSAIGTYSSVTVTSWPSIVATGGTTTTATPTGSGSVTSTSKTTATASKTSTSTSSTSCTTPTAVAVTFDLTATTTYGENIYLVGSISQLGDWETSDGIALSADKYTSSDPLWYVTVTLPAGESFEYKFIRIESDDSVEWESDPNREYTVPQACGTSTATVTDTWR
# T1 sequence (Q42656 16-378): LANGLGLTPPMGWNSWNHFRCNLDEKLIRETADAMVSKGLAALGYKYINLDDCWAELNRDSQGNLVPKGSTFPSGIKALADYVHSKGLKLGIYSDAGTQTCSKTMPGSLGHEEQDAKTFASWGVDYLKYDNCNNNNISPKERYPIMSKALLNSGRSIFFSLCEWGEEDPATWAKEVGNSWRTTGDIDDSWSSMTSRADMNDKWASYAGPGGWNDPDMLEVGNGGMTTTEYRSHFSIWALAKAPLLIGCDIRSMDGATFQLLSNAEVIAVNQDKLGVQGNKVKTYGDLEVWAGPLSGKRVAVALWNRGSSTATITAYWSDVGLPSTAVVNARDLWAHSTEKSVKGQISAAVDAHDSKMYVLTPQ
compound,measurement,setting,value
"OCC1OC(O)C(O)C(B(O)O)C1O [Compound 7, 3-Boronic-3-Deoxy-D-galactose]",inhibition at 25 µM,"U87 (glioblastoma); 25 µM of drug, n = 3, mean ± SEM, read-out: Percentage (%) cell growth inhibition",-6 ± 3%
same,GI50,"U87 (glioblastoma); dose response, read-out: GI50 = Concentration that inhibits cell growth by 50%",> 50 µM
same,inhibition at 1000 µM,[1]; [7],0%
same,inhibition at 1000 µM,[1]; read-out: NI: No inhibition,< 50%
same,inhibition at 25 µM,"H460 (lung carcinoma); Homo sapiens, NCI-H460, 25 µM of drug, n = 3, mean ± SEM, read-out: Percentage (%) cell growth inhibition",4 ± 1%
same,GI50,"H460 (lung carcinoma); Homo sapiens, NCI-H460, dose response, read-out: GI50 = Concentration that inhibits cell growth by 50%",> 50 µM
same,inhibition at 25 µM,"[2]; Homo sapiens, MCF-10A, 25 µM of drug, n = 3, mean ± SEM, read-out: Percentage (%) cell growth inhibition",7 ± 3%
same,GI50,"[2]; Homo sapiens, MCF-10A, dose response, read-out: GI50 = Concentration that inhibits cell growth by 50%",> 50 µM
same,inhibition at 25 µM,"SJ-G2 (glioblastoma); SJ-G2, 25 µM of drug, n = 3, mean ± SEM, read-out: Percentage (%) cell growth inhibition",7 ± 4%
same,GI50,"SJ-G2 (glioblastoma); SJ-G2, dose response, read-out: GI50 = Concentration that inhibits cell growth by 50%",> 50 µM
same,inhibition at 25 µM,"[3]; Homo sapiens, DU-145, 25 µM of drug, n = 3, mean ± SEM, read-out: Percentage (%) cell growth inhibition",7 ± 4%
same,GI50,"[3]; Homo sapiens, DU-145, dose response, read-out: GI50 = Concentration that inhibits cell growth by 50%",> 50 µM
same,inhibition at 1000 µM,E. coli β-glucuronidase; [7],3.7%
same,inhibition at 1000 µM,E. coli β-glucuronidase; read-out: NI: No inhibition,< 50%
same,NI: No inhibition,[4]; at 1000 μM,NI (No inhibition (less than 50% inhibition at 1000 μM))
same,inhibition %,[4]; at 1000 μM,18.3%
same,inhibition at 25 µM,"BE2-C (neuroblastoma); Homo sapiens, BE(2)-C, 25 µM of drug, n = 3, mean ± SEM, read-out: Percentage (%) cell growth inhibition",1 ± 2%
same,GI50,"BE2-C (neuroblastoma); Homo sapiens, BE(2)-C, dose response, read-out: GI50 = Concentration that inhibits cell growth by 50%",> 50 µM
same,inhibition at 1000 µM,[5]; [7],1.5%
same,inhibition at 1000 µM,[5]; read-out: NI: No inhibition,< 50%
same,inhibition at 25 µM,"[6]; Homo sapiens, MIA PaCa-2, 25 µM of drug, n = 3, mean ± SEM, read-out: Percentage (%) cell growth inhibition",1 ± 2%
same,GI50,"[6]; Homo sapiens, MIA PaCa-2, dose response, read-out: GI50 = Concentration that inhibits cell growth by 50%",> 50 µM
same,NI: No inhibition,snail β-mannosidase; at 1000 μM,NI (No inhibition (less than 50% inhibition at 1000 μM))
same,inhibition %,snail β-mannosidase; at 1000 μM,0%
same,inhibition at 25 µM,"MCF-7 (breast carcinoma); Homo sapiens, MCF7, 25 µM of drug, n = 3, mean ± SEM, read-out: Percentage (%) cell growth inhibition",2 ± 2%
same,GI50,"MCF-7 (breast carcinoma); Homo sapiens, MCF7, dose response, read-out: GI50 = Concentration that inhibits cell growth by 50%",> 50 µM
N[C@@H](Cc1ccc(B(O)O)cc1)C(=O)O [^10B-BPA],Percentage (%) cell growth inhibition,U87 (glioblastoma); [8],<0%
same,inhibition %,"[1]; at 100 μM, in methanol",1.2%
same,Percentage (%) cell growth inhibition,H460 (lung carcinoma); [8],8 ± 5%
same,Percentage (%) cell growth inhibition,[2]; [8],<0%
same,Percentage (%) cell growth inhibition,SJ-G2 (glioblastoma); [8],5 ± 10%
same,Percentage (%) cell growth inhibition,[3]; [8],15 ± 9%
same,inhibition %,"E. coli β-glucuronidase; at 100 μM, in methanol",2.4%
same,NI: No inhibition,[4]; at 100 μM,NI (No inhibition (less than 50% inhibition at 100 μM))
same,inhibition %,[4]; at 100 μM,0%
same,Percentage (%) cell growth inhibition,BE2-C (neuroblastoma); [8],10 ± 6%
same,inhibition %,"[5]; at 100 μM, in methanol",0%
same,Percentage (%) cell growth inhibition,[6]; [8],11 ± 3%
same,NI: No inhibition,snail β-mannosidase; at 100 μM,NI (No inhibition (less than 50% inhibition at 100 μM))
same,inhibition %,snail β-mannosidase; at 100 μM,0.3%
same,Percentage (%) cell growth inhibition,MCF-7 (breast carcinoma); [8],1 ± 3%
